Laboratory results: the NIST ThermoML archive (doi:10.1021/je049721u)

Assay: mn = molality of the nth substance listed, in mol/kg
Conditions: 101.3 kPa, Liquid; for speed of sound: Pulse-echo method

[Ni+2].[O-][Cl+3]([O-])([O-])[O-].[O-][Cl+3]([O-])([O-])[O-] [nickel perchlorate] + CN(C)C=O
Conditions | mass density, 283.15 K [kg/m3] | mass density, 293.15 K [kg/m3] | mass density, 298.15 K [kg/m3] | mass density, 303.15 K [kg/m3] | mass density, 313.15 K [kg/m3] | mass density, 323.15 K [kg/m3] | mass density, 333.15 K [kg/m3] | speed of sound, 298.15 K [m/s]
m1 = 0.027 | – | – | – | – | – | – | – | 1459.6
m1 = 0.02709 | 963.872 | 954.383 | 949.635 | 944.864 | 935.312 | 925.725 | 916.07 | –
m1 = 0.0405 | 966.705 | 957.208 | 952.461 | 947.7 | 938.159 | 928.568 | 918.935 | 1460.7
m1 = 0.054 | 969.549 | 960.073 | 955.329 | 950.578 | 941.045 | 931.471 | 921.848 | 1461.7
m1 = 0.0681 | 972.55 | 963.083 | 958.342 | 953.59 | 944.072 | 934.511 | 924.9 | 1462.9
m1 = 0.08156 | 975.396 | 965.94 | 961.2 | 956.46 | 946.947 | 937.4 | 927.809 | 1463.9
m1 = 0.1073 | 980.845 | 971.397 | 966.666 | 961.935 | 952.463 | 942.934 | 933.366 | 1466
m1 = 0.1332 | 986.418 | 976.985 | 972.262 | 967.533 | 958.059 | 948.552 | 939.005 | 1467.8
m1 = 0.1592 | 992.026 | 982.603 | 977.888 | 973.17 | 963.711 | 954.224 | 944.695 | 1470
m1 = 0.1864 | 997.967 | 988.557 | 983.849 | 979.136 | 969.697 | 960.23 | 950.732 | 1471.8
m1 = 0.2118 | 1003.54 | 994.141 | 989.44 | 984.736 | 975.313 | 965.882 | 956.405 | 1473.6
m1 = 0.2613 | 1014.55 | 1005.16 | 1000.47 | 995.784 | 986.394 | 976.988 | 967.56 | 1477.5
